Peptide text beside a SMILES is read from it.
Experiments:
[1] = target: T1, HLA B*0702 (Homo sapiens, UniProt P01889); experiment: biochemical; format: binding
T1 construct: Pure Protein, LLC (ran the assay)

[2] = target: T2, HLA A*0201 (Homo sapiens, UniProt P04439, D140Y/D185E/D98H/E176V/E277Q/G131W/G231S/I119V/I121R/I166T/I218V/L300P/L318F/N151K/N90K/P208A/P217A/Q86G/Q94H/R138H/R169H/T345S); experiment: biochemical; format: binding
T2 construct: Pure Protein, LLC (ran the assay)

[3] = target: T3, HLA A*2402 (Homo sapiens, UniProt P04439, D101N/D140Y/D185E/E176V/E190D/F33S/G103R/G107R/I119L/I121M/I306V/K335N/L105A/L180Q/L300P/N151K/N90K/Q86E/Q94H/R106L/R138H/R89G/T104I/T345S/V100E/W191G/Y123F); experiment: In vitro class I HLA binding competition assay (fluorescence polarization); settings: allele A2402; cell-free competition with fluorescently labeled control peptide, fluorescence polarization at 72 hours
T3 construct: Pure Protein, LLC (ran the assay)
Description: The cell-free class I HLA binding assay in use at Pure Protein, LLC allows for in vitro quantification of peptide-HLA binding affinity in a competition format. In this assay, a fluorescently labeled, high binding, control peptide is loaded onto 384-well ½-area plates along with unlabeled experimental peptides. To remove endogenous peptides and render the HLA A and B molecules receptive to binding, HLA is heated at 53°C for 15 minutes and immediately added to the assay. The mixture is then allowed to stand for three days. […] Binding of experimental peptides is expressed as the percent inhibition of the labeled control peptide (experimental fluorescence / control fluorescence, multiplied by 100). The percent inhibition values for each experimental peptide (across a range of molar concentrations) are used to calculate the concentration which inhibits 50% of the labeled control peptide’s specific binding. This value is referred to as the peptide’s IC50.

[4] = target: HLA-DRB1*0301 (Homo sapiens, UniProt P01903+P01911, A100K/A102G/A103R/A169T/F55Y/I96L/K41T/L162R/M171V/P40S/Q125H/Q178H/Q39Y/R42S/S66N/T106N/T262R/W38E/Y61H); experiment: In vitro class II HLA binding competition assay; settings: competition with fluorescent-labeled reference peptide, class II HLA monomers, 24-hours, test peptide 100,000 nM to 100 nM, time-resolved fluorescence
How it was run: (§1)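 IC50 values derive from percent inhibition of reference-peptide binding, measured by time-resolved fluorescence with a europium-linked probe after anti-HLA-DR capture. Titrated test peptides (100,000 nM down to 100 nM final) were incubated 24 h with a fluorescent reference peptide and limiting class II HLA monomers.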

[5] = target: T4, HLA-DRB1*0401 (Homo sapiens, UniProt P01903+P01911, A100K/A169T/F76Y/I96L/K127E/L162R/M171V/N62H/P40V/Q125Y/R42H/S133A/S149N/S66Y/V115G/V209L/W38E); experiment: In vitro class II HLA binding competition assay; settings: competition with fluorescent-labeled reference peptide, class II HLA monomers, 24-hours, test peptide 100,000 nM to 100 nM, time-resolved fluorescence; read-out: IC50, DRB1*0401
T4 construct: purchased
How it was run: as §1

[6] = target: HLA-DRB1*0701 (Homo sapiens, UniProt P01903+P01911, A100R/A102G/A103Q/D57E/D86V/E43K/F76Y/K127E/L162R/M171V/P40G/Q125H/Q99D/R33Q/R42Y/R54Q/S133A/S66F/T210M/V115G/Y107V/Y59L/Y89S); experiment: In vitro class II HLA binding competition assay; settings: competition with fluorescent-labeled reference peptide, class II HLA monomers, 24-hours, test peptide 100,000 nM to 100 nM, time-resolved fluorescence; read-out: IC50, DRB1*0701
How it was run: as §1

[7] = target: T5, HLA-DRB1*1101 (Homo sapiens, UniProt P01903+P01911, A100R/A169T/A87E/I96F/K41T/L162R/M171V/P40S/Q125H/Q178H/Q39Y/Q99D/R42S/S66Y/T262R/V115G/W38E); experiment: In vitro class II HLA binding competition assay; settings: competition with fluorescent-labeled reference peptide, class II HLA monomers, 24-hours, test peptide 100,000 nM to 100 nM, time-resolved fluorescence
T5 construct: purchased
How it was run: as §1

[8] = target: HLA-DRB1*1301 (Homo sapiens, UniProt P01903+P01911, A100E/A169T/K41T/L162R/M171V/P40S/Q125H/Q178H/Q39Y/Q99D/R42S/S66N/T262R/W38E/Y61H); experiment: In vitro class II HLA binding competition assay; settings: competition with fluorescent-labeled reference peptide, class II HLA monomers, 24-hours, test peptide 100,000 nM to 100 nM, time-resolved fluorescence
How it was run: as §1

[9] = target: T6, HLA-DRB1*1501 (Homo sapiens, UniProt P01903+P01911); experiment: In vitro class II HLA binding competition assay; settings: competition with fluorescent-labeled reference peptide, class II HLA monomers, 24-hours, test peptide 100,000 nM to 100 nM, time-resolved fluorescence; read-out: IC50, DRB1*1501
T6 construct: purchased
How it was run: as §1

[10] = target: T7, HLA-DRB1*0101 (Homo sapiens, UniProt P01903+P01911, A100R/D57E/F55L/F60I/F76Y/I96L/L162R/M171V/P40L/Q125E/R42F/V115G/Y59C); experiment: In vitro class II HLA binding competition assay; settings: competition with fluorescent-labeled reference peptide, class II HLA monomers, 24-hours, test peptide 100,000 nM to 100 nM, time-resolved fluorescence
T7 construct: purchased
How it was run: as §1

[11] = system: CD4 T cells co-cultured with autologous DCs from PBMCs; format: cell-based, human; settings: positive = Stimulation Index ≥1.5-fold above baseline, 5 µg/mL peptide

Compound: CC[C@H](C)[C@H](NC(=O)[C@H](CCCCN)NC(=O)[C@H](CCCCN)NC(=O)[C@H](CC(C)C)NC(=O)[C@@H](N)Cc1ccc(O)cc1)C(=O)N[C@@H](CCC(N)=O)C(=O)N[C@@H](CC(N)=O)C(=O)N[C@@H](CO)C(=O)N[C@@H](CC(C)C)C(=O)O [Cluster 319_ICS2] (H-YLKKIQNSL-OH)
- IC50 [1]: 9200 nM
- IC50 [2]: 2180 nM
- IC50 [3]: 11200 nM

Compound: CC[C@H](C)[C@H](NC(=O)[C@H](CO)NC(=O)[C@H](CO)NC(=O)[C@H](CC(N)=O)NC(=O)[C@@H](NC(=O)[C@@H](NC(=O)[C@H](CC(N)=O)NC(=O)[C@H](Cc1ccccc1)NC(=O)[C@@H](NC(=O)[C@H](CO)NC(=O)[C@H](CO)NC(=O)[C@@H](N)CCCCN)C(C)C)C(C)C)C(C)C)C(=O)NCC(=O)N[C@@H](CC(C)C)C(=O)N[C@H](C(=O)N[C@@H](CCSC)C(=O)N[C@H](C(=O)N[C@@H](CC(C)C)C(=O)N[C@@H](CO)C(N)=O)C(C)C)[C@@H](C)CC [Cluster C4] (H-KSSVFNVVNSSIGLIMVLS-NH2)
- IC50 [4]: 1100 nM
- IC50 [5]: 1690 nM
- IC50 [6]: 2070 nM
- IC50 [7]: 1040 nM
- IC50 [8]: 1200 nM
- IC50 [9]: 12300 nM
- IC50 [10]: 526 nM
- Percentage of donors demonstrating IFN-γ responses, DR1 ([11]; DR1 donors N=5, ICCS after 14-day co-culture): 20%
- Percentage of donors demonstrating IL-2 responses, DR1 ([11]; DR1 donors N=5, ICCS): 0%
- Percentage of donors demonstrating IL-4 responses, DR1 ([11]; DR1 donors N=5, ICCS): 0%
- Percentage of donors demonstrating IL-10 responses, DR1 ([11]; DR1 donors N=5, ICCS): 20%
- Percentage of donors demonstrating TNF-α responses, DR1 ([11]; DR1 donors N=5, ICCS): 0%
- Percentage of donors demonstrating IFN-γ responses, DR3 ([11]; DR3 donors N=6, ICCS after 14-day co-culture): 17%
- Percentage of donors demonstrating IL-2 responses, DR3 ([11]; DR3 donors N=6, ICCS): 0%
- Percentage of donors demonstrating IL-4 responses, DR3 ([11]; DR3 donors N=6, ICCS): 0%
- Percentage of donors demonstrating IL-10 responses, DR3 ([11]; DR3 donors N=6, ICCS): 0%
- Percentage of donors demonstrating TNF-α responses, DR3 ([11]; DR3 donors N=6, ICCS): 0%
- Percentage of donors demonstrating IFN-γ responses, DR4 ([11]; DR4 donors N=10, ICCS after 14-day co-culture): 30%
- Percentage of donors demonstrating IL-2 responses, DR4 ([11]; DR4 donors N=10, ICCS): 0%
- Percentage of donors demonstrating IL-4 responses, DR4 ([11]; DR4 donors N=10, ICCS): 40%
- Percentage of donors demonstrating IL-10 responses, DR4 ([11]; DR4 donors N=10, ICCS): 20%
- Percentage of donors demonstrating TNF-α responses, DR4 ([11]; DR4 donors N=10, ICCS): 10%
- Percentage of donors demonstrating IFN-γ responses, DR7 ([11]; DR7 donors N=4, ICCS after 14-day co-culture): 0%
- Percentage of donors demonstrating IL-2 responses, DR7 ([11]; DR7 donors N=4, ICCS): 0%
- Percentage of donors demonstrating IL-4 responses, DR7 ([11]; DR7 donors N=4, ICCS): 25%
- Percentage of donors demonstrating IL-10 responses, DR7 ([11]; DR7 donors N=4, ICCS): 0%
- Percentage of donors demonstrating TNF-α responses, DR7 ([11]; DR7 donors N=4, ICCS): 0%
- Percentage of donors demonstrating IFN-γ responses, DR8 ([11]; DR8 donors N=4, ICCS after 14-day co-culture): 25%
- Percentage of donors demonstrating IL-2 responses, DR8 ([11]; DR8 donors N=4, ICCS): 25%
- Percentage of donors demonstrating IL-4 responses, DR8 ([11]; DR8 donors N=4, ICCS): 25%
- Percentage of donors demonstrating IL-10 responses, DR8 ([11]; DR8 donors N=4, ICCS): 25%
- Percentage of donors demonstrating TNF-α responses, DR8 ([11]; DR8 donors N=4, ICCS): 25%
- Percentage of donors demonstrating IFN-γ responses, DR9 ([11]; DR9 donors N=4, ICCS after 14-day co-culture): 0%
- Percentage of donors demonstrating IL-2 responses, DR9 ([11]; DR9 donors N=4, ICCS): 25%
- Percentage of donors demonstrating IL-4 responses, DR9 ([11]; DR9 donors N=4, ICCS): 25%
- Percentage of donors demonstrating IL-10 responses, DR9 ([11]; DR9 donors N=4, ICCS): 0%
- Percentage of donors demonstrating TNF-α responses, DR9 ([11]; DR9 donors N=4, ICCS): 25%
- Percentage of donors demonstrating IFN-γ responses, DR11 ([11]; DR11 donors N=4, ICCS after 14-day co-culture): 50%
- Percentage of donors demonstrating IL-2 responses, DR11 ([11]; DR11 donors N=4, ICCS): 25%
- Percentage of donors demonstrating IL-4 responses, DR11 ([11]; DR11 donors N=4, ICCS): 0%
- Percentage of donors demonstrating IL-10 responses, DR11 ([11]; DR11 donors N=4, ICCS): 0%
- Percentage of donors demonstrating TNF-α responses, DR11 ([11]; DR11 donors N=4, ICCS): 25%
- Percentage of donors demonstrating IFN-γ responses, DR13 ([11]; DR13 donors N=7, ICCS after 14-day co-culture): 29%
- Percentage of donors demonstrating IL-2 responses, DR13 ([11]; DR13 donors N=7, ICCS): 43%
- Percentage of donors demonstrating IL-4 responses, DR13 ([11]; DR13 donors N=7, ICCS): 14%
- Percentage of donors demonstrating IL-10 responses, DR13 ([11]; DR13 donors N=7, ICCS): 0%
- Percentage of donors demonstrating TNF-α responses, DR13 ([11]; DR13 donors N=7, ICCS): 43%
- Percentage of donors demonstrating IFN-γ responses, DR15 ([11]; DR15 donors N=7, ICCS after 14-day co-culture): 0%
- Percentage of donors demonstrating IL-2 responses, DR15 ([11]; DR15 donors N=7, ICCS): 0%
- Percentage of donors demonstrating IL-4 responses, DR15 ([11]; DR15 donors N=7, ICCS): 29%
- Percentage of donors demonstrating IL-10 responses, DR15 ([11]; DR15 donors N=7, ICCS): 0%
- Percentage of donors demonstrating TNF-α responses, DR15 ([11]; DR15 donors N=7, ICCS): 14%

From paper PMC8217813, “Bridging Computational Vaccinology and Vaccine Development Through Systematic Identification, Characterization, and Downselection of Conserved and Variable Circumsporozoite Protein CD4 T Cell Epitopes From Diverse Plasmodium falciparum Strains” (Frontiers in Immunology, 2021)
